Test results as given in patent US20060275285A1, “Methods of inhibiting a GPCR” (Amgen Inc., priority 2005, published 2006).

Key:
PPAR-gamma = assay: Gene profiling by real time PCR of adipose tissue: PPAR-gamma; type: in vivo, mice; details: Groups 3 and 4 (25 and 50 mg/kg)
Procedure: (§1) Fed glucose measurements were made at the beginning, midpoint and endpoint of the study. A fasting GTT measurement was done at the midpoint and endpoint of the study. Fed plasma samples were tested for insulin, total cholesterol, free fatty acids, triglycerides, and liver enzymes. At the end of the study, animals were sacrificed and tissue samples (liver, white adipose tissue, brown adipose tissue) were taken for histological evaluation and GPR23 mRNA quantitation.
(§2) Gene profiling experiments were performed to provide additional insight into the mechanism of action associated with GPR23.

fatty acid synthase mRNA = assay: Gene profiling by real time PCR of adipose tissue: fatty acid synthase; type: in vivo, mice; details: white adipose tissue; Groups 3 and 4 (25 and 50 mg/kg)
Procedure: as §1, §2

[1] = system: male C57 black 6 mice fed a high fat diet (diet induced obesity); assay: GPR23 antisense study in diet induced obesity mice (body composition, serum parameters, liver); type: in vivo; details: for body weight: 50 mg/kg IP weekly for 7 weeks (Group 4) vs control animals
Procedure: (§3) GPR23-specific antisense oligos were generated by Isis Pharmaceuticals (Carlsbad, Calif.) and were evaluated for activity in bEND (murine brain endothelial) cells. […] An oligo without homology to any known gene was provided as a control ([…] (SEQ ID NO:10)). For the studies, male C57 black 6 mice were fed a high fat diet for 12 weeks (from 3 weeks of age) and analyzed for parameters of diet induced obesity. Animals that show appropriate symptoms of diet induced obesity (e.g., hyperinsulemia and weight gain with no signs of illness) were divided into 5 groups (10 animals/group) and treated as described below:
(§4) Group 1 (saline treated control): saline IP injection weekly for 7 weeks;
(§5) Group 2 (universal oligo control): oligo IP injection 50 mg/kg body weight, weekly for 7 weeks;
(§6) Group 3 (GPR23 antisense oligo (ASO) treated): oligo IP injection, 25 mg/kg body weight, weekly for 7 weeks;
(§7) Group 4 (GPR23 ASO treated): oligo IP injection, 50 mg/kg body weight, weekly for 7 weeks; and
(§8) Group 5: (rosiglitizone treated control): 50 mg/kg body weight for 7 weeks.
as §1

GPR23 mRNA = GPR23 mRNA quantitation by real time PCR in white adipose tissue of diet induced obese mice; type: in vivo; details: Groups 3 and 4 (25 and 50 mg/kg IP weekly for 7 weeks) vs Group 2
Procedure: as §3, §4, §5, §6, §7, §8
Fed glucose measurements were made at the beginning, midpoint and endpoint of the study. […] At the end of the study, animals were sacrificed and tissue samples (liver, white adipose tissue, brown adipose tissue) were taken for histological evaluation and GPR23 mRNA quantitation. […]

hormone sensitive lipase = assay: Gene profiling by real time PCR of adipose tissue: hormone sensitive lipase; type: in vivo, mice; details: Groups 3 and 4 (25 and 50 mg/kg)
Procedure: as §1, §2

GPR23 = assay: GPR23-specific antisense oligos evaluated for activity in bEND cells; type: cell-based; details: bEND (murine brain endothelial) cells
Procedure: as §3, with “below: […]” for “below:”

[2] = 50 mg/kg IP weekly for 7 weeks (Group 4) vs control oligo (Group 2)
[3] = Groups 3 and 4 (25 and 50 mg/kg), not statistically significant, data not shown

CTCAGTATCATTAGCTTCAA (listed as DNA, chemistry not given here; listed as Mus musculus) [GPR23 antisense oligo]
levels of PPAR-gamma (PPAR-gamma): did not change significantly | fatty acid synthase mRNA levels (fatty acid synthase mRNA): significantly reduced in a dose-dependent manner | body weight [1]: weighed slightly less than control animals | body weight ([1]; listed as antisense oligo): weighed less than control animals | fat mass [1, 2]: statistically significant decrease | lean mass [1, 2]: statistically significant increase | liver fat scores ([1]; Groups 3 and 4 (25 and 50 mg/kg)): lower | liver enzymes (a parameter of toxicity) ([1]; Groups 3 and 4 (25 and 50 mg/kg) compared to control groups (Groups 1 and 2)): not significantly different | free fatty acid levels [1, 3]: lower | triglyceride levels [1, 3]: lower | serum cholesterol levels ([1]; both 25 mg/kg and 50 mg/kg doses (Groups 3 and 4), change from baseline at week 7, relative to controls): lowered relative to controls | glucose tolerance tests ([1]; fasting GTT, antisense oligo treatment): not affected | reduction of GPR23 mRNA levels relative to control oligo treated animals (GPR23 mRNA): ~70% | levels of hormone sensitive lipase (hormone sensitive lipase): did not change significantly | expression of GPR23 in cultured cells (GPR23): markedly reduced
